Tests used:
human mAChR M1 [1] = biological target: T1, human mAChR M1 (Homo sapiens, UniProt P11229); assay: mAChR M1 cell-based functional assay (calcium mobilization), PAM mode: increase in the EC20 acetylcholine response
T1 sequence (P11229 1-460): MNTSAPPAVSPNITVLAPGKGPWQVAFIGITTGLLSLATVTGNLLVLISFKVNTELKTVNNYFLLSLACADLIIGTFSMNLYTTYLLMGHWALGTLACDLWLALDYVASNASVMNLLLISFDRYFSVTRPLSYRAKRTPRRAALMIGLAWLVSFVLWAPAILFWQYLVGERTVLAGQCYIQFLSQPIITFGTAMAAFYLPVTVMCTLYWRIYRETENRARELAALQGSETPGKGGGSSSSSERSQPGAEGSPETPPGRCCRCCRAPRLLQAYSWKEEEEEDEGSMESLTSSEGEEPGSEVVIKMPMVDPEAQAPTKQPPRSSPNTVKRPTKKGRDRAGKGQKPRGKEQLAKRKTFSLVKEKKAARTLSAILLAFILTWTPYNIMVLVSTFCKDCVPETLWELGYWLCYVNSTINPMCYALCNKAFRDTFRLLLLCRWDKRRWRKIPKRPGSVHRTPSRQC
Excerpt: (§1) Chinese hamster ovary (CHO-K1) cells stably expressing rat (r)M1 were purchased from the American Type Culture Collection and cultured according to their indicated protocol. CHO cells stably expressing human (h)M2, hM3, and hM5 were described previously (Levey, et al., 1991); hM1 and hM4 cDNAs were purchased from Missouri S&T cDNA Resource; rM4 cDNA was provided by T. I. Bonner (National Institutes of Health, Bethesda, MD). rM2 and rM3 were cloned from a rat brain cDNA library and sequence verified. hM1, rM2, rM3, hM4, and rM4 cDNAs were used to stably transfect CHO-K1 cells purchased from the American Type Culture Collection using Lipofectamine2000. To make stable rM2, hM2, rM3, hM4, and rM4 cell lines for use in calcium mobilization assays, these cells also were stably transfected with a chimeric G-protein (Gqi5) (provided by B. R. Conklin, University of California, San Francisco) using Lipofectamine 2000. rM1, hM1, rM3, hM3, rM5, and hM5 cells were grown in Ham's F-12 medium containing 10% heat-inactivated fetal bovine serum (FBS), 20 mM HEPES, and 50 μg/mL G418 sulfate. rM2-Gqi5, hM2-Gqi5, and hM4-Gqi5 cells were grown in the same medium also containing 500 μg/mL Hygromycin B. Stable rM4-Gqi5 cells were grown in DMEM containing 10% heat-inactivated FBS, 20 mM HEPES, 400 μg/mL G418 sulfate, and 500 μg/mL Hygromycin B.
(§2) For high throughput measurement of agonist-evoked increases in intracellular calcium, CHO-K1 cells stably expressing muscarinic receptors were plated in growth medium lacking G418 and hygromycin at 15,000 cells/20 μL/well in Greiner 384-well black-walled, tissue culture (TC)-treated, clear-bottom plates (VWR). Cells were incubated overnight at 37° C. and 5% C02. The next day, cells were washed using an ELX 405 (BioTek) with four washes (80 μL) of assay buffer then aspirated to 20 μL. Next, 20 μL of 16 μM Fluo-4/acetoxymethyl ester (Invitrogen, Carlsbad, CA) prepared as a 2.3 mM stock in DMSO and mixed in a 1:1 ratio with 10% (w/v) Pluronic F-127 and diluted in assay buffer was added to the wells and the cell plates were incubated for 50 min at 37° C. and 5% C02. Dye was removed by washing with the ELX 405 (four 80 μL washes of assay buffer) then aspirated to 20 μL. Compound master plates were formatted in an 11 point CRC format (1:3 dilutions) in 100% DMSO with a starting concentration of 10 mM using the BRAVO liquid handler (Agilent). Test compound CRCs were then transferred to daughter plates (240 nL) using the Echo acoustic plate reformatter (Labcyte, Sunnyvale, CA) and then diluted into assay buffer (40 μL) to a 2× stock using a Thermo Fisher Combi (Thermo Fisher Scientific, Waltham, MA).
Calcium flux was measured using the Functional Drug Screening System (FDSS) 6000 (Hamamatsu Corporation, Tokyo, Japan) as an increase in the fluorescent static ratio. Compounds were applied to cells (20 μL, 2×) using the automated system of the FDSS 6000 at 4 s into the 300 s protocol and the data were collected at 1 Hz. At 144 s into the 300 s protocol, 10 μL of an EC20 concentration of the muscarinic receptor agonist acetylcholine was added (5×), followed by the addition of 12 μL of an EC80 concentration of acetylcholine at the 230 s time point (5×). Agonist activity was analyzed as a concentration-dependent increase in calcium mobilization upon compound addition. Emax values for agonist activity are expressed relative to the maximum for acetylcholine. Positive allosteric modulator activity was analyzed as a concentration-dependent increase in the EC20 acetylcholine response. Antagonist activity was analyzed as a concentration-dependent decrease in the EC80 acetylcholine response. Concentration-response curves were generated using a four-parameter logistical equation in XLfit curve fitting software (IDBS, Bridgewater, NJ) for Excel (Microsoft, Redmond, WA) or Prism (GraphPad Software, Inc., San Diego, CA). […]

human mAChR M1 [2] = biological target: T1, human mAChR M1; assay: mAChR M1 cell-based functional assay (calcium mobilization), agonist mode: compound alone, Emax relative to acetylcholine maximum; conditions: for Agonist Activity Human M1 EC50 / EC50: human mAChR M1; for Emax: relative to the maximum for acetylcholine
Excerpt: as §1, §2
Calcium flux was measured using the Functional Drug Screening System (FDSS) 6000 (Hamamatsu Corporation, Tokyo, Japan) as an increase in the fluorescent static ratio. Compounds were applied to cells (20 μL, 2×) using the automated system of the FDSS 6000 at 4 s into the 300 s protocol and the data were collected at 1 Hz. At 144 s into the 300 s protocol, 10 μL of an EC20 concentration of the muscarinic receptor agonist acetylcholine was added (5×), followed by the addition of 12 μL of an EC80 concentration of acetylcholine at the 230 s time point (5×). Agonist activity was analyzed as a concentration-dependent increase in calcium mobilization upon compound addition. Emax values for agonist activity are expressed relative to the maximum for acetylcholine. Positive allosteric modulator activity was analyzed as a concentration-dependent increase in the EC20 acetylcholine response. Antagonist activity was analyzed as a concentration-dependent decrease in the EC80 acetylcholine response. Concentration-response curves were generated using a four-parameter logistical equation in XLfit curve fitting software (IDBS, Bridgewater, NJ) for Excel (Microsoft, Redmond, WA) or Prism (GraphPad Software, Inc., San Diego, CA).

Row | SMILES | EC50 (human mAChR M1 [1]) | Emax (human mAChR M1 [1]) | Agonist Activity Human M1 EC50 (human mAChR M1 [2]) | Emax (human mAChR M1 [2]) | EC50 (human mAChR M1 [2])
1 | [2H]C1([2H])c2ncccc2C(=O)N1Cc1c(F)cc(-c2cccc3nn(C([2H])([2H])[2H])c(F)c23)cc1C1CC1 [Compound 191, 6-(2-Cyclopropyl-6-fluoro-4-(3-fluoro-2-(methyl-d3)-2H-indazol-4-yl)benzyl)-6,7-dihydro-5H-pyrrolo[3,4-b]pyridin-5-one-7,7-d2] | 1050 nM | 58% | Inactive | 2% | 
2 | [2H]C1([2H])c2ncccc2C(=O)N1Cc1c(F)cc(-c2ccc(C)c3c2cnn3C([2H])([2H])[2H])cc1F [Compound 70, 6-(2,6-difluoro-4-(7-methyl-1-(methyl-d3)-1H-indazol-4-yl)benzyl)-6,7-dihydro-5H-pyrrolo[3,4-b]pyridin-5-one-7,7-d2] | 1220 nM | 65% | Inactive | 2% | 
3 | [2H]C1([2H])c2ncccc2C(=O)N1Cc1c(F)cc(-c2ccn3ccnc3c2)cc1F [Compound 5, 6-(2,6-difluoro-4-(imidazo[1,2-a]pyridin-7-yl)benzyl)-6,7-dihydro-5H-pyrrolo[3,4-b]pyridin-5-one-7,7-d2] | 977 nM | 40% | Inactive | 2% | 
4 | [2H]C1([2H])c2ncccc2C(=O)N1Cc1ccc(-c2cccc3nn(C)cc23)cc1F [Compound 23, 6-(2-fluoro-4-(2-methyl-2H-indazol-4-yl)benzyl)-6,7-dihydro-5H-pyrrolo[3,4-b]pyridin-5-one-7,7-d2] | 1130 nM | 76% | Inactive | 7% | 
5 | [2H]C1([2H])c2ncccc2C(=O)N1Cc1ccc(-c2ccc3cn(C)nc3c2)cc1F [Compound 20, 6-(2-fluoro-4-(2-methyl-2H-indazol-6-yl)benzyl)-6,7-dihydro-5H-pyrrolo[3,4-b]pyridin-5-one-7,7-d2] | 3970 nM | 75% | Inactive | 3% | 
6 | [2H]C1([2H])c2ncccc2C(=O)N1Cc1c(F)cc(-c2ccc(OC[C@@H](C)OC)c3nn(C)cc23)cc1F [Compound 172, (R)-6-(2,6-difluoro-4-(7-(2-methoxypropoxy)-2-methyl-2H-indazol-4-yl)benzyl)-6,7-dihydro-5H-pyrrolo[3,4-b]pyridin-5-one-7,7-d2] | 354 nM | 82% |  | 27% | ≥ 10000 nM
7 | [2H]C1([2H])c2ncccc2C(=O)N1Cc1c(F)cc(-c2cc(F)c(F)c3nn(C([2H])([2H])[2H])cc23)cc1F [Compound 106, 6-(4-(6,7-difluoro-2-(methyl-d3)-2H-indazol-4-yl)-2,6-difluorobenzyl)-6,7-dihydro-5H-pyrrolo[3,4-b]pyridin-5-one-7,7-d2] | 140 nM | 30% | Inactive | 2% | 
8 | [2H]C1([2H])c2ncccc2C(=O)N1Cc1ccc(-c2ccn3ccnc3c2)cc1 [Compound 19, 6-(4-(imidazo[1,2-a]pyridin-7-yl)benzyl)-6,7-dihydro-5H-pyrrolo[3,4-b]pyridin-5-one-7,7-d2] | > 10000 nM | 58% | Inactive | 4% | 
9 | [2H]C1([2H])c2ncccc2C(=O)N1Cc1c(F)cc(-c2ccc(C(F)F)c3nn(C)cc23)cc1F [Compound 123, 6-(4-(7-(difluoromethyl)-2-methyl-2H-indazol-4-yl)-2,6-difluorobenzyl)-6,7-dihydro-5H-pyrrolo[3,4-b]pyridin-5-one-7,7-d2] | 490 nM | 80% |  | 11% | 7930 nM
10 | [2H]C1([2H])c2ncccc2C(=O)N1Cc1ccc(-c2cnc3nn(C([2H])([2H])[2H])cc3c2)cc1F [Compound 118, 6-(2-fluoro-4-(2-(methyl-d3)-2H-pyrazolo[3,4-b]pyridin-5-yl)benzyl)-6,7-dihydro-5H-pyrrolo[3,4-b]pyridin-5-one-7,7-d2] | 527 nM | 66% |  | 16% | ≥ 10000 nM
11 | [2H]C1([2H])c2ncccc2C(=O)N1Cc1c(F)cc(-c2cc3cn(C)nc3cc2C)cc1F [Compound 6, 6-(4-(2,6-dimethyl-2H-indazol-5-yl)-2,6-difluorobenzyl)-6,7-dihydro-5H-pyrrolo[3,4-b]pyridin-5-one-7,7-d2] | 4090 nM | 48% | Inactive | 7% | 
12 | [2H]C([2H])([2H])Oc1cnc2c(c1)C(=O)N(Cc1c(F)cc(-c3ccc(OC)c4nn(C)cc34)cc1F)C2([2H])[2H] [Compound 146, 6-(2,6-difluoro-4-(7-methoxy-2-methyl-2H-indazol-4-yl)benzyl)-3-(methoxy-d3)-6,7-dihydro-5H-pyrrolo[3,4-b]pyridin-5-one-7,7-d2] | 179 nM | 79% |  | 28% | 4640 nM
13 | [2H]C1([2H])c2ncccc2C(=O)N1Cc1ccc(-c2ccc(F)c3nn(C([2H])([2H])[2H])cc23)cc1C [Compound 47, 6-(4-(7-fluoro-2-(methyl-d3)-2H-indazol-4-yl)-2-methylbenzyl)-6,7-dihydro-5H-pyrrolo[3,4-b]pyridin-5-one-7,7-d2] | 900 nM | 76% | Inactive | 5% | 
14 | [2H]C1([2H])c2ncccc2C(=O)N1Cc1ccc(-c2ccc(OC)c3nn(C([2H])([2H])[2H])cc23)cc1C [Compound 57, 6-(4-(7-methoxy-2-(methyl-d3)-2H-indazol-4-yl)-2-methylbenzyl)-6,7-dihydro-5H-pyrrolo[3,4-b]pyridin-5-one-7,7-d2] | 288 nM | 87% | Inactive | 4% | 

Source: patent US20240228489A1, “POSITIVE ALLOSTERIC MODULATORS OF THE MUSCARINIC ACETYLCHOLINE RECEPTOR M1” (Vanderbilt University, priority 2021, published 2024)
